Chloramphenicol resistance phenotype and β-galactosidase activity data for two molecules are collected here from US20050058665A1, “Identification of virulence determinants activators in prokaryotic pathogens” (Boston Medical Center Corporation, priority 1998, published 2005).

One series concerns the target T1, DtxR (Corynebacterium diphtheriae, UniProt P0DJL7).
T1 construct: expressed in transfected cells; host or cells: E. coli TOP10/λRS65T/pSC6/pRDA
T1 sequence (P0DJL7 1-226): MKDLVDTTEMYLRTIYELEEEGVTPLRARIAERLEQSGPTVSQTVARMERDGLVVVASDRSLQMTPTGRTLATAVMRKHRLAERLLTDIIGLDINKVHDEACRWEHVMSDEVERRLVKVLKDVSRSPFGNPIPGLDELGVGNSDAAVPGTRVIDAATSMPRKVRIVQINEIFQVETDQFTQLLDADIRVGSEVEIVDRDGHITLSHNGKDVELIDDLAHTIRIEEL
Put plainly: PSDT system, chloramphenicol resistance phenotype of the indicator strain. In kind it is cell-based. Particulars: E. coli TOP10/λRS65T/pSC6/pRDA; DP added to growth medium. From the text:
Development of the PSDT System. The PSDT system, which consists of a lysogenic E. coli TOP1O host strain carrying the reporter gene cat on an integrated λ phage, λRS65T, and a set of detector plasmids, is illustrated in FIG. 1. Expression of cat on λRS65T is controlled by the tetA promoter/operator (tetAPO), and, in the absence of the tetracycline repressor (TetR), E. coli TOP10/λRS65T is resistant to chloramphenicol (Cm^R).
We next constructed the detector plasmid pSC6, which carries the tetR gene under the control of the diphtheria toxPO. When pSC6 is transformed into E. coli TOP10/λRS65T, the bacterial host strain becomes Cm-sensitive (Cm^S) by virtue of the constitutive expression of tetR, which recognizes and binds to the tetAO and represses cat gene expression. However, if a functional dtxR allele is introduced into the bacterial host on a second compatible plasmid, PRDA, the interaction between DtxR and the toxO will repress the expression of tetR, and the bacterial host, E. coli TOP10/λRS65T/pSC6/pRDA, then will regain its CM^rphenotype.

A further series deals with toxPO-lacZ. Put plainly: β-galactosidase assay in toxPO-lacZ reporter strain. In kind it is cell-based. Particulars: E. coli DH5α/λRS45 toxPO; LB broth, absence or presence of increasing concentrations of DP (up to 250 μM). On the procedure: β-Galactosidase Assay. β-galactosidase activity was measured essentially as described by Miller (Miller, J. H. (1972) Experiments in Molecular Genetics (Cold Spring Harbor Lab. Press, Plainview, N.Y.)). In brief, 0.5 ml of an overnight culture at ^A600 of =1.0 were lysed by the addition of lysis mix (chloroform:10% SDS, 2:1), vortexing the mixture for 10 sec and transferring 200 μl to 800 ul lacZ buffer (60 mM Na2HPO4/40 mM NaH2PO4/10 mM KCl/1 mM MgSO4/50 mM β-mercaptoethanol). The reaction was initiated by adding 200 μl of o-nitrophenyl β-D-galactopyranoside (Sigma) (4 mg/ml). After incubation at room temperature (5 min-1 hr), the reaction was stopped by the addition of 0.5 ml of 1M sodium carbonate. Absorbance was measured at 420 and 550 nm, and β-galactosidase units were calculated according to Miller, supra.
The resulting plasmids were designated pDM2, pDM3, pDM11, and pDM5, respectively. The pDM series of plasmids then were transformed individually into E. coli DH5α/λRS45 toxPO. This reporter strain carries a transcriptional fusion in which the lacZ gene is under the control of the diphtheria toxPO, toxPO-lacZ, and, as a result, the synthesis of β-galactosidase is regulated by their respective dtxR gene products. Individual strains were grown in LB broth supplemented with appropriate antibiotics in either the absence or presence of increasing concentrations of DP. […]

Regarding `c1ccc(-c2ccccn2)nc1` [DP, 2,2′-dipyridyl], the chloramphenicol resistance phenotype result on DtxR is “phenotypic conversion from Cm^R to Cm^S”.

B1: wild-type DtxR (protein, UniProt P0DJL7 1-226, looked up)
Diphtheria toxin repressor: T1 sequence (P0DJL7 1-226)
As to B1, the β-galactosidase activity entry in the series on toxPO-lacZ is “β-galactosidase activity increases”.
